Source: the OPERA property sets (Mansouri et al. 2018)

In the case of CCCCCCCCC=CCCCCCCCC(=O)OCCS(=O)(=O)[O][Na], the ready biodegradability is reported as “readily biodegradable”.
With C=C(C)CCl the ready biodegradability was “readily biodegradable”.
With CC(C)OC(=O)OOC(C)(C)C the ready biodegradability was “not readily biodegradable”.
In the case of O=C(O)CCSCCC(=O)O, the ready biodegradability is reported as “readily biodegradable”.
With Nc1cccc2c1C(=O)c1ccccc1C2=O the ready biodegradability was “not readily biodegradable”.
In the case of Cc1cccc(C(=O)O)c1, the ready biodegradability is reported as “readily biodegradable”.
With Oc1cccc(Br)c1 the ready biodegradability was “not readily biodegradable”.
For O=S(=O)(O)c1ccccc1, the ready biodegradability was “readily biodegradable”.
In the case of CCCCCCCCCCCCO, the ready biodegradability is reported as “readily biodegradable”.
For CC(=O)c1ccccc1Cl, the ready biodegradability was “not readily biodegradable”.
With C1=CC2C3C=CC(C3)C2C1 (stereo not given) the ready biodegradability was “not readily biodegradable”.
In the case of CCCCCCc1ccccc1, the ready biodegradability is reported as “readily biodegradable”.
With CCCCCCCCC=CCCCCCCCC(=O)N(C)CCS(=O)(=O)[O][Na] the ready biodegradability was “readily biodegradable”.

Point of comparison: CC(CO)Oc1ccccc1 (stereo not given), boiling point 244 °C. Against it:
- C=C(C)CCl — lower, 71.5 °C
- C1=CCNCC1 — lower, 108 °C
- CCCCCC(C)N (stereo not given) — lower, 142 °C
- C[Si](C)(Cl)C(Cl)Cl — lower, 149 °C
- CCC(C)CC(C)C (stereo not given) — lower, 110 °C
- CC1CC1(C)C (stereo not given) — lower, 54 °C
- C=CCCCCCCCCC=C — lower, 208 °C
- C=C(C)C1CCC=C(C)C1 (stereo not given) — lower, 176 °C
- COc1ccccc1-c1ccccc1 — higher, 274 °C
- Oc1cccc(Br)c1 — lower, 236 °C
- CNCC(OC)OC — lower, 140 °C
- CC(C)CC(C)C — lower, 80.4 °C
- CCc1cccc(C)c1N(C(=O)CCl)[C@@H](C)COC — higher, 282 °C
- CCCCCCCCCCCCO — higher, 259 °C
- ClCCCCCCCCCCl — higher, 260 °C
- CCc1ccc2ccccc2c1 — higher, 258 °C
- CC(C)(C)CCC(C)(C)C — lower, 137 °C
- C1=CC2C3C=CC(C3)C2C1 (stereo not given) — lower, 170 °C
- CCCCCCc1ccccc1 — lower, 226 °C
- COc1ccc(N=Nc2ccccc2)cc1 — higher, 340 °C
- Cc1nccn1C — lower, 206 °C
- C[SiH](O[SiH](C)O[Si](C)(C)C)O[Si](C)(C)C (stereo not given) — lower, 170 °C
- CC=Cc1ccc(OC)cc1 — lower, 234 °C
- CCCC(=O)c1ccc(C)cc1 — higher, 252 °C
- Cc1cc(C)c(C)cc1C — lower, 197 °C
- Cc1cc(C)c2ncccc2c1 — higher, 268 °C
- CCc1ccsc1 — lower, 136 °C
- FC1C(F)(F)C(F)(F)C(F)(F)C(F)(F)C1(F)F — lower, 62 °C
- OCCOCCOCCOCCO — higher, 328 °C

Point of comparison: Fc1ccc(Oc2ccnc3cc(Cl)cc(Cl)c23)cc1, log10 vapour pressure (mmHg) -6.82. Against it:
- C=C(C)CCl — higher, 2.01
- CCC(C)CC(C)C (stereo not given) — higher, 1.48
- Nc1cccc2c1C(=O)c1ccccc1C2=O — lower, -8.3
- Cc1cccc(C(=O)O)c1 — higher, -3.63
- Clc1cc2c(oc3c(Cl)cccc32)c(Cl)c1Cl — lower, -7.4
- CCOC(=O)C(C)Oc1ccc(Oc2cnc3cc(Cl)ccc3n2)cc1 (stereo not given) — lower, -8.19
- CC(C)CC(C)C — higher, 1.9
- CCCCCCCCCCCCO — higher, -3.07
- N#Cc1nn(-c2c(Cl)cc(C(F)(F)F)cc2Cl)c(N)c1S(=O)C(F)(F)F (stereo not given) — lower, -8.56
- Nc1ccc(Nc2ccc([N+](=O)[O-])cc2[N+](=O)[O-])cc1 — lower, -10.2
- CCc1ccc2ccccc2c1 — higher, -1.5
- CC(C)(C)CCC(C)(C)C — higher, 0.942
- C1=CC2C3C=CC(C3)C2C1 (stereo not given) — higher, 0.361
- CCCCCCc1ccccc1 — higher, -0.919
- O=C1C(Cl)C(CCl)CN1c1cccc(C(F)(F)F)c1 (stereo not given) — higher, -5.48
- CC=Cc1ccc(OC)cc1 — higher, -1.15
- Cc1cc(C)c(C)cc1C — higher, -0.277
- OCCOCCOCCOCCO — higher, -4.33

Point of comparison: C1=CC2C3C=CC(C3)C2C1 (stereo not given), melting point 15.5 °C. Against it:
- CN(CC(=O)O)C(=O)COC(=O)c1ccccc1 — higher, 106 °C
- C1=CCNCC1 — lower, -48 °C
- COP(=S)(OC)Oc1ccc(Sc2ccc(OP(=S)(OC)OC)cc2)cc1 — higher, 30 °C
- C[Si](C)(Cl)C(Cl)Cl — lower, -48 °C
- O=C(O)CCSCCC(=O)O — higher, 129 °C
- CC1CC1(C)C (stereo not given) — lower, -138 °C
- Nc1cccc2c1C(=O)c1ccccc1C2=O — higher, 254 °C
- OCCCCCCCCCCCCCCO — higher, 85.8 °C
- Cc1cccc(C(=O)O)c1 — higher, 109 °C
- C/N=C(\NC)NCc1ccccc1 — higher, 196 °C
- COc1ccccc1-c1ccccc1 — higher, 29 °C
- O=c1oc2ccccc2c(O)c1Cc1c(O)c2ccccc2oc1=O — higher, 290 °C
- Oc1cccc(Br)c1 — higher, 33 °C
- BrC(c1ccccc1)(c1ccccc1)c1ccccc1 — higher, 153 °C
- Clc1cc2c(oc3c(Cl)cccc32)c(Cl)c1Cl — higher, 190 °C
- O=S(=O)(O)c1ccccc1 — higher, 65 °C
- O=C(O)c1cc(F)cc(F)c1 — higher, 122 °C
- CCOC(=O)C(C)Oc1ccc(Oc2cnc3cc(Cl)ccc3n2)cc1 (stereo not given) — higher, 84.2 °C
- CC(C)CC(C)C — lower, -120 °C
- O=C(O)c1c(Br)cccc1Br — higher, 150 °C
- CCCCCCCCCCCCO — higher, 24 °C
- N#Cc1nn(-c2c(Cl)cc(C(F)(F)F)cc2Cl)c(N)c1S(=O)C(F)(F)F (stereo not given) — higher, 200 °C
- CC12CC1(C)C(=O)N(c1cc(Cl)cc(Cl)c1)C2=O (stereo not given) — higher, 166 °C
- Nc1ccc(Nc2ccc([N+](=O)[O-])cc2[N+](=O)[O-])cc1 — higher, 188 °C
- Cc1nc2ccccc2nc1C — higher, 105 °C
- C[C@]12CC[C@H](O)CC1=CC[C@@H]1[C@@H]2CC[C@@]2(C)[C@H]1CC[C@]2(C)O — higher, 206 °C
- CC(C)(C)CCC(C)(C)C — lower, -12.6 °C
- COC(=O)[C@@H]1CCCN1C(=O)COC(=O)c1ccccc1 — higher, 72.5 °C
- NNS(=O)(=O)c1ccccc1 — higher, 102 °C
- O=[Se](O)c1ccccc1 — higher, 124 °C
- Nc1c(Br)cc([N+](=O)[O-])cc1Br — higher, 207 °C
- CNC(=S)NCO — higher, 89 °C
- CCCCCCc1ccccc1 — lower, -61 °C
- O=C1c2ccccc2C(=O)C1c1ccc(Br)cc1 — higher, 138 °C
- O=C1C(Cl)C(CCl)CN1c1cccc(C(F)(F)F)c1 (stereo not given) — higher, 67.7 °C
- COc1ccc(N=Nc2ccccc2)cc1 — higher, 56 °C
- Oc1ccc(C(c2ccc(O)cc2)(C(F)(F)F)C(F)(F)F)cc1 — higher, 162 °C
- Fc1ccc(Oc2ccnc3cc(Cl)cc(Cl)c23)cc1 — higher, 107 °C
- OCCc1ccccn1 — lower, -7.8 °C
- O=c1[nH]c(=O)n([C@H]2C[C@H](O)[C@@H](CO)O2)cc1C(F)(F)F — higher, 188 °C
- CC=Cc1ccc(OC)cc1 — higher, 21.3 °C
- CC(=O)[C@H]1CC[C@H]2[C@@H]3CC=C4C[C@@H](O)CC[C@]4(C)[C@H]3CC[C@]12C — higher, 192 °C
- CCCC(=O)c1ccc(C)cc1 — lower, 12 °C
- Cc1cc(C)c(C)cc1C — higher, 79.3 °C
- Oc1ccc2c(c1)[C@@]13CCCC[C@H]1[C@@H](C2)N(CC1CC1)CC3 — higher, 188 °C
- C=C1C[C@@H]1C[C@H](N)C(=O)O — higher, 282 °C
- O=C(c1ccccc1O)N1CCOCC1 — higher, 175 °C
- Cc1ccnc(N)n1 — higher, 160 °C
- CCc1ccsc1 — lower, -89.1 °C
- COc1ccc(-c2ccc(OC)cc2)cc1 — higher, 175 °C

Point of comparison: Cc1cc(C)c(C)cc1C, log10 Koc (L/kg) 3.12. Against it:
- COP(=S)(OC)Oc1ccc(Sc2ccc(OP(=S)(OC)OC)cc2)cc1 — higher, 5
- CCOC(=O)C(C)Oc1ccc(Oc2cnc3cc(Cl)ccc3n2)cc1 (stereo not given) — lower, 2.71
- CCCCCCCCCCCCO — higher, 3.52
- CC12CC1(C)C(=O)N(c1cc(Cl)cc(Cl)c1)C2=O (stereo not given) — within 0.2 log units, 3.18
- CCc1ccc2ccccc2c1 — higher, 3.76
- OCCc1ccccn1 — lower, 1.45

Point of comparison: CCC(C)CC(C)C (stereo not given), log10 biodegradation half-life (days) 0.845. Against it:
- CC(C)CC(C)C — higher, 1.68
- Cc1cc(C)c(C)cc1C — the same, 0.845

Point of comparison: CCCCCCCCCCCCO, log10 Henry constant (atm·m³/mol) -4.65. Against it:
- CCc1ccc2ccccc2c1 — higher, -3.27
